Test results taken from US20150141435A1, “2-PYRIDONE ANTIMICROBIAL COMPOSITIONS” (Emergent BioSolutions, priority 2010, published 2015).
Values after ≈ are worked out from the molar mass of the structure shown.

Legend:
Type in all cases: cell-based
E. coli ATCC 25922 = assay: MIC, CLSI broth microdilution (Table 2); conditions: Escherichia coli, ATCC25922; Gram negative; MHB, 37° C., 16-20 hours; read-out: MIC E. coli ATCC 25922
[1] = test system: Burkholderia cepacia (5 strains); assay: MIC range, broader panel incl. clinical isolates (Table 4)
K. pneumoniae ATCC 33495 = assay: MIC, CLSI broth microdilution (Table 2); conditions: Klebsiella pneumoniae, ATCC33495; Gram negative; MHB, 37° C., 16-20 hours; read-out: MIC K. pneumoniae ATCC 33495
[2] = test system: Staphylococcus aureus (16 strains); assay: MIC range, broader panel incl. clinical isolates (Table 3)
[3] = test system: Bacillus anthracis Ames strain; assay: microbe, parasite or virus in culture
S. pneumonia ATCC 49619 = assay: MIC, CLSI broth microdilution (Table 1); conditions: Streptococcus pneumoniae, ATCC49619; Gram positive; MHB, 37° C., 16-20 hours; read-out: MIC S. pneumonia ATCC 49619
E. faecium ATCC 19434 = assay: MIC, CLSI broth microdilution (Table 1); conditions: Enterococcus faecium, ATCC19434; Gram positive; MHB, 37° C., 16-20 hours; read-out: MIC E. faecium ATCC 19434
A. baumannii ATCC 19606 = assay: MIC, CLSI broth microdilution (Table 2); conditions: Acinetobacter baumannii, ATCC19606; Gram negative; MHB, 37° C., 16-20 hours; read-out: MIC A. baumannii B. ATCC 19606
[4] = test system: Francisella tularensis Schu S4; assay: microbe, parasite or virus in culture; conditions: SCHUS4
[5] = test system: Burkholderia mallei ATCC 23344; assay: microbe, parasite or virus in culture; conditions: ATCC23344
[6] = test system: S. maltophilia ATCC 17677; assay: MIC, CLSI broth microdilution (Table 2); conditions: Stenotrophomonas maltophilia, ATCC17677; Gram negative; MHB, 37° C., 16-20 hours; read-out: MIC S. maltophilia ATCC 17677
H. influenzae ATCC 49247 = assay: MIC, CLSI broth microdilution (Table 2); conditions: Haemophilus influenzae, ATCC49247; Gram negative; MHB, 37° C., 16-20 hours; read-out: MIC H. influenzae ATCC 49247
Yersinia pestis C092 = assay: microbe, parasite or virus in culture
[7] = test system: S. aureus BAA-1720 (MRSA, FQ-R); assay: MIC, CLSI broth microdilution (Table 1); conditions: Staphylococcus aureus; Gram positive; MHB, 37° C., 16-20 hours; read-out: MIC S. aureus BAA-1720 (MRSA, FQ-R)
[8] = test system: Burkholderia pseudomallei ATCC 23343; assay: microbe, parasite or virus in culture; conditions: ATCC23343

For Cc1c(C2=CCNCC2)ccn2c(=O)c(C(=O)O)cc(C3CC3)c12 [Example 42, 1-cyclopropyl-9-methyl-4-oxo-8-(1,2,3,6-tetrahydropyridin-4-yl)-4H-quinolizine-3-carboxylic acid], the MIC (E. coli ATCC 25922) was 0.064 µg/mL (≈ 0.197 µM), the “MIC Range High, Burkholderia cepacia (5 strains)” value ([1]; High of 5 strains) was 2 µg/mL (≈ 6.17 µM) and the “MIC Range Low, Burkholderia cepacia (5 strains)” value ([1]; Low of 5 strains) was 2 µg/mL (≈ 6.17 µM). The “MIC Range Median, Burkholderia cepacia (5 strains)” value ([1]; Median of 5 strains) was 2 µg/mL (≈ 6.17 µM), the MIC (K. pneumoniae ATCC 33495) was 0.125 µg/mL (≈ 0.385 µM) and the “MIC Range High, Staphylococcus aureus (16 strains)” value ([2]; High of 16 strains) was 32 µg/mL (≈ 98.6 µM). For the same molecule, the “MIC Range Low, Staphylococcus aureus (16 strains)” value ([2]; Low of 16 strains) was 0.5 µg/mL (≈ 1.54 µM), the “MIC Range Median, Staphylococcus aureus (16 strains)” value ([2]; Median of 16 strains) was 16.25 µg/mL (≈ 50.1 µM) and the MIC [3] was 0.25 µg/mL (≈ 0.771 µM). For the same molecule, the MIC (S. pneumonia ATCC 49619) was 2 µg/mL (≈ 6.17 µM), the MIC (E. faecium ATCC 19434) was greater than 8 µg/mL and the MIC (A. baumannii ATCC 19606) was 2 µg/mL (≈ 6.17 µM). For the same molecule, the MIC [4] was 0.25 to 0.5 µg/mL (≈ 0.771 to 1.54 µM), the MIC [5] was 2 µg/mL (≈ 6.17 µM) and the MIC [6] was 1 µg/mL (≈ 3.08 µM). It also gave an MIC (H. influenzae ATCC 49247) of 0.064 µg/mL (≈ 0.197 µM), an MIC (Yersinia pestis C092) of 0.5 to 1 µg/mL (≈ 1.54 to 3.08 µM) and an MIC [7] greater than 8 µg/mL. For the same molecule, the MIC [8] was 4 µg/mL (≈ 12.3 µM).
